Test results reported in patent US9845330B2, “6-nitro-2,3-dihydroimidazo[2,1-b]oxazoles and a process for the preparation thereof” (priority 2013, dated 2017).
Values after ≈ are worked out from the molar mass of the structure shown. Where two headings read alike, the source gives them in different places.

Key:
Type in all cases: cell-based
[1] = Cytotoxicity assay (MTT) in macrophage J774 cells; settings: mouse, J774 macrophage cells; also called safety index
How it was run: (§1)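 J774 cells seeded at 3×10^4 cells/cm^2 in RPMI with FCS reduced to 5%, then exposed to compounds at 40 μg/ml for 24 hrs. MTT reduction read at 450 nm; percentage cytotoxicity calculated relative to untreated cells.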

[2] = system: macrophage J774 cells line; experiment: Cytotoxicity assay (MTT) in macrophage J774 cells; settings: J774 cells, 24 hrs, MTT
How it was run: as §1

[3] = system: M. tuberculosis H37Rv (ATCC 27294); experiment: MIC by broth dilution method, M. tuberculosis H37Rv; settings: Mycobacterium tuberculosis
[4] = 504 h, broth dilution, 3 weeks, read-out: MIC M. tb H37Rv
[5] = read-out: MIC value, text summary: sensitive H37Rv as well as MDR and XDR strains of M. tuberculosis

| Compound | selectivity ratio at 24 h, 40 μg/ml [1] | Cytotoxicity [2] [µg/mL] | MIC [3, 4] [µg/mL] | MIC [3, 5] [µg/mL] |
| --- | --- | --- | --- | --- |
| C[C@]1(COc2ccc(-n3cc(-c4ccccc4)nn3)cc2)Cn2cc([N+](=O)[O-])nc2O1 [IA1] | > 10 | >40 | 4 (≈ 9.56 µM) |  |
| CCc1ccc(-c2cn(-c3ccc(OC[C@@]4(C)Cn5cc([N+](=O)[O-])nc5O4)cc3)nn2)cc1 [IA2, (R)-2-{4-[4-(4-ethylphenyl)-1H-1,2,3-triazol-1-yl]phenoxymethyl}-2,3-dihydro-2-methyl-6-nitroimidazo[2,1-b]oxazole] | > 10 | >40 | 2 (≈ 4.48 µM) |  |
| C[C@]1(COc2ccc(-n3cc(-c4ccc(F)cc4)nn3)cc2)Cn2cc([N+](=O)[O-])nc2O1 [IA3, (R)-2-{4-[4-(4-fluorophenyl)-1H-1,2,3-triazol-1-yl]phenoxymethyl}-2,3-dihydro-2-methyl-6-nitroimidazo[2,1-b]oxazole] | > 10 | >40 | 0.25 (≈ 0.573 µM) | < 1 |
| C[C@]1(COc2ccc(-n3cc(-c4ccc(OC(F)(F)F)cc4)nn3)cc2)Cn2cc([N+](=O)[O-])nc2O1 [IA5, (R)-2-{4-[4-(4-trifluoromethoxyphenyl)-1H-1,2,3-triazol-1-yl]phenoxymethyl}-2,3-dihydro-2-methyl-6-nitroimidazo[2,1-b]oxazole] | > 10 | >40 | 0.5 (≈ 0.995 µM) | < 1 |
| C[C@]1(COc2ccc(-n3cc(-c4ccccc4C(F)(F)F)nn3)cc2)Cn2cc([N+](=O)[O-])nc2O1 [IA6, (R)-2-{4-[4-(2-trifluoromethylphenyl)-1H-1,2,3-triazol-1-yl]phenoxymethyl}-2,3-dihydro-2-methyl-6-nitroimidazo[2,1-b]oxazole] | > 10 | >40 | 1 (≈ 2.06 µM) |  |
| COc1ccc(-c2cn(-c3ccc(OC[C@@]4(C)Cn5cc([N+](=O)[O-])nc5O4)cc3)nn2)cc1 [IA11, (R)-2-{4-[4-(4-methoxyphenyl)-1H-1,2,3-triazol-1-yl]phenoxymethyl}-2,3-dihydro-2-methyl-6-nitroimidazo[2,1-b]oxazole] | > 10 | >40 | 0.25 (≈ 0.557 µM) | < 1 |
| C[C@]1(COc2ccc(-n3cc(-c4cccc(OC(F)(F)F)c4)nn3)cc2)Cn2cc([N+](=O)[O-])nc2O1 [IA12, (R)-2-{4-[4-(3-trifluoromethoxyphenyl)-1H-1,2,3-triazol-1-yl]phenoxymethyl}-2,3-dihydro-2-methyl-6-nitroimidazo[2,1-b]oxazole] | > 10 | >40 | 0.5 (≈ 0.995 µM) | < 1 |
| C[C@]1(COc2ccc(-n3cc(-c4cccc(C(F)(F)F)c4)nn3)cc2)Cn2cc([N+](=O)[O-])nc2O1 [IA13, (R)-2-{4-[4-(3-trifluoromethylphenyl)-1H-1,2,3-triazol-1-yl]phenoxymethyl}-2,3-dihydro-2-methyl-6-nitroimidazo[2,1-b]oxazole] | > 10 | >40 | 2 (≈ 4.11 µM) |  |
| C[C@]1(COc2ccc(-n3cc(-c4ccccn4)nn3)cc2)Cn2cc([N+](=O)[O-])nc2O1 [IA14] | > 10 | >40 | 2 (≈ 4.77 µM) |  |
| CCCCCc1cn(-c2ccc(OC[C@@]3(C)Cn4cc([N+](=O)[O-])nc4O3)cc2)nn1 [IA15, (R)-2-{4-[4-pentyl-1H-1,2,3-triazol-1-yl]phenoxymethyl}-2,3-dihydro-2-methyl-6-nitroimidazo[2,1-b]oxazole] | > 10 | >40 | 32 (≈ 77.6 µM) |  |
| C[C@]1(COc2ccccc2-n2cc(-c3ccc(F)cc3F)nn2)Cn2cc([N+](=O)[O-])nc2O1 [IA24, (R)-2-{2-[4-(2,4-difluorophenyl)-1H-1,2,3-triazol-1-yl]phenoxymethyl}-2,3-dihydro-2-methyl-6-nitroimidazo[2,1-b]oxazole] | > 10 | >40 | 1 (≈ 2.2 µM) |  |
| C[C@]1(COc2ccc(-n3cc(COc4ccc(F)cc4)nn3)cc2)Cn2cc([N+](=O)[O-])nc2O1 [IA26] | > 10 | >40 | 0.5 (≈ 1.07 µM) | < 1 |
| C[C@]1(COc2ccc(-n3cc(COc4ccc(C(F)(F)F)cc4)nn3)cc2)Cn2cc([N+](=O)[O-])nc2O1 [IA27] | > 10 | >40 | 0.25 (≈ 0.484 µM) | < 1 |
| C[C@]1(COc2ccc(-n3cc(COc4ccccc4F)nn3)cc2)Cn2cc([N+](=O)[O-])nc2O1 [IA28] | > 10 | >40 | 0.12 (≈ 0.257 µM) | < 1 |
| Cc1ccc(OCc2cn(-c3ccc(OC[C@@]4(C)Cn5cc([N+](=O)[O-])nc5O4)cc3)nn2)cc1 [IA29] | > 10 | >40 | 32 (≈ 69.2 µM) |  |
| CC(C)c1ccc(OCc2cn(-c3ccc(OC[C@@]4(C)Cn5cc([N+](=O)[O-])nc5O4)cc3)nn2)cc1 [IA30] | > 10 | >40 | 32 (≈ 65.2 µM) |  |

| Compound | selectivity ratio at 24 h, 40 μg/ml [1] | Cytotoxicity [2] [µg/mL] | MIC [3, 4] [µg/mL] | MIC [3, 5] [µg/mL] |
| --- | --- | --- | --- | --- |
| CCc1ccc(OCc2cn(-c3ccc(OC[C@@]4(C)Cn5cc([N+](=O)[O-])nc5O4)cc3)nn2)cc1 [IA31] | > 10 | >40 | 0.25 (≈ 0.525 µM) | < 1 |
| CCC(C)c1ccc(OCc2cn(-c3ccc(OC[C@@]4(C)Cn5cc([N+](=O)[O-])nc5O4)cc3)nn2)cc1 (stereo partly shown) [IA32] | > 10 | >40 | 0.12 (≈ 0.238 µM) | < 1 |
| C[C@]1(COc2cccc(-n3cc(COc4ccc(F)cc4)nn3)c2)Cn2cc([N+](=O)[O-])nc2O1 [IA34] | > 10 | >40 | 0.12 (≈ 0.257 µM) | < 1 |
| C[C@]1(COc2ccccc2-n2cc(COc3ccc(OC(F)(F)F)cc3)nn2)Cn2cc([N+](=O)[O-])nc2O1 [IA39] | > 10 | >40 | 1 (≈ 1.88 µM) |  |
| C[C@]1(COc2ccccc2-n2cc(COc3ccc(F)cc3)nn2)Cn2cc([N+](=O)[O-])nc2O1 [IA40] | > 10 | >40 | 4 (≈ 8.58 µM) |  |
| C[C@]1(COc2ccccc2-n2cc(COc3ccc(C(F)(F)F)cc3)nn2)Cn2cc([N+](=O)[O-])nc2O1 [IA41] | > 10 | >40 | 2 (≈ 3.87 µM) |  |
| C[C@]1(COc2ccc(NC(=S)Nc3ccc(C(F)(F)F)cc3)cc2)Cn2cc([N+](=O)[O-])nc2O1 [IIA10, (R)-1-(4-trifluoromethylphenyl)-3-{4-(2-methyl-6-nitro-2,3-dihydroimidazo[2,1-b]oxazol-2-yl)methoxyphenyl}thiourea] |  | >40 | 4 (≈ 8.11 µM) |  |
| Cc1ccc(NS(=O)(=O)c2ccc(OC[C@@]3(C)Cn4cc([N+](=O)[O-])nc4O3)cc2)cc1 [IIB1, (R)-4-{(2-methyl-6-nitro-2,3-dihydroimidazo[2,1-b]oxazol-2-yl)methoxy}-N-(p-tolyl)benzenesulfonamide] |  | >40 | 2 (≈ 4.5 µM) |  |
| C[C@]1(COc2ccc(S(=O)(=O)Nc3ccc(OC(F)(F)F)cc3)cc2)Cn2cc([N+](=O)[O-])nc2O1 [IIB2, (R)-4-{(2-methyl-6-nitro-2,3-dihydroimidazo[2,1-b]oxazol-2-yl)methoxy}-N-(4 trifluoromethoxyphenyl)benzenesulfonamide] |  | >40 | 2 (≈ 3.89 µM) |  |
| C[C@]1(COc2ccc(S(=O)(=O)Nc3ccc(C(F)(F)F)cc3)cc2)Cn2cc([N+](=O)[O-])nc2O1 [IIB3, (R)-4-{(2-methyl-6-nitro-2,3-dihydroimidazo[2,1-b]oxazol-2-yl)methoxy}-N-(4 trifluoromethylphenyl)benzenesulfonamide] |  | >40 | 2 (≈ 4.01 µM) |  |
| CN(c1ccccc1)S(=O)(=O)c1ccc(OC[C@@]2(C)Cn3cc([N+](=O)[O-])nc3O2)cc1 [IIB4, (R)—N-methyl-4-{(2-methyl-6-nitro-2,3-dihydroimidazo[2,1-b]oxazol-2-yl)methoxy}-N-phenylbenzenesulfonamide] |  | >40 | 4 (≈ 9 µM) |  |
| Cc1ccc(N(C)S(=O)(=O)c2ccc(OC[C@@]3(C)Cn4cc([N+](=O)[O-])nc4O3)cc2)cc1 [IIB5, (R)—N-methyl-4-{(2-methyl-6-nitro-2,3-dihydroimidazo[2,1-b]oxazol-2-yl)methoxy}-N-(p-tolyl)benzenesulfonamide] |  | >40 | 4 (≈ 8.72 µM) |  |
| CN(c1ccc(C(F)(F)F)cc1)S(=O)(=O)c1ccc(OC[C@@]2(C)Cn3cc([N+](=O)[O-])nc3O2)cc1 [IIB6, (R)—N-methyl-4-{(2-methyl-6-nitro-2,3-dihydroimidazo[2,1-b]oxazol-2-yl)methoxy}-N-(p-trifluoromethylphenyl)benzenesulfonamide] |  | >40 | 1 (≈ 1.95 µM) |  |
| C[C@]1(COc2ccc(S(=O)(=O)N3CCN(c4ccccc4)CC3)cc2)Cn2cc([N+](=O)[O-])nc2O1 [IIC1, (R)-2-{4-(4-phenylpiperazin-1-yl)sulfonylphenoxymethyl}-2,3-dihydro-2-methyl-6-nitroimidazo[2,1-b]oxazole] |  | >40 | 1 (≈ 2 µM) |  |
| C[C@]1(COc2ccc(S(=O)(=O)N3CCN(c4ccc(F)cc4)CC3)cc2)Cn2cc([N+](=O)[O-])nc2O1 [IIC2, (R)-2-{4-[4-(4-fluorophenyl)piperazin-1-yl]sulfonylphenoxymethyl}-2,3-dihydro-2-methyl-6-nitroimidazo[2,1-b]oxazole] |  | >40 | 2 (≈ 3.86 µM) |  |
